# From article PMC12560828, “Chemical structure drives developmental toxicity of alkyl-substituted naphthalenes in zebrafish” (Environment international, 2025)
# Test system: zebrafish larvae, 120 hpf
# Assay: Larval photomotor response (LPR) assay after vial exposure
# Format: in vivo, Danio rerio
# Conditions: LPR
# In short: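 Embryos bleached at 6 hpf, exposed in sealed glass vials (8 per vial, DMSO stock at 200x) with rotation overnight at 28 °C, then singulated into chemical-free medium and kept dark at 28 °C. Movement tracked minutes 6–24 at 120 hpf, 6 s bins log-normalized to AUC; LEL per light/dark period from first cycle; nominal water concentrations, dead/malformed larvae excluded.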
# [1] = period dark, round 1, conc 3.125
# [2] = period dark, round 1, conc 6.25
# [3] = period dark, round 1, conc 12.5
# [4] = period light, round 1, conc 3.125
# [5] = period light, round 1, conc 6.25
# [6] = period light, round 1, conc 12.5
# [7] = period dark, round 2, conc 37.5
# [8] = period light, round 2, conc 37.5
SMILES,fold_change [1],fold_change [2],fold_change [3],"fold_change (period dark, round 1, conc 25)",fold_change [4],fold_change [5],fold_change [6],"fold_change (period light, round 1, conc 25)","fold_change (period dark, round 1, conc 50)","fold_change (period light, round 1, conc 50)","fold_change (period dark, round 2, conc 30)",fold_change [7],"fold_change (period light, round 2, conc 30)",fold_change [8],"fold_change (period dark, round 2, conc 12.8)","fold_change (period dark, round 2, conc 16)","fold_change (period dark, round 2, conc 20)","fold_change (period light, round 2, conc 12.8)","fold_change (period light, round 2, conc 16)","fold_change (period light, round 2, conc 20)"
"Cc1ccc2cccc(C)c2c1 [1,7-dimethylnaphthalene]",-0.2153,-0.5415,-0.6708,-0.6391,-0.5634,-0.1569,-0.05053,0.1308,,,,,,,,,,,,
"Cc1ccc2ccc(C)cc2c1 [2,7-dimethylnaphthalene]",0.1561,-0.165,-0.13,-0.7363,0.7628,0.4574,1.067,1.005,-0.8227,0.2181,,,,,,,,,,
"Cc1cccc2c(C)cccc12 [1,5-dimethylnaphthalene]",0.2385,0.04355,0.0001175,-0.1166,0.2204,0.1087,0.8122,0.799,,,-0.72,-0.6231,0.3918,0.2643,,,,,,
CCc1ccc2ccccc2c1 [2-ethylnaphthalene],-0.0209,-0.02917,-0.4131,-0.9177,-0.3417,0.05317,0.3434,-0.2321,,,-0.0665,-0.3116,0.3708,-0.3232,,,,,,
"Cc1cc(C)c2c(C)cccc2c1 [2,4,5-trimethylnaphthalene]",-0.1188,-0.09148,-0.4407,,-0.1438,-0.1964,0.215,,,,,,,,-0.3131,-0.104,-0.2326,-0.6609,0.3746,0.3257
